Measured values reported in PMC4286721, “Structural insights into the catalytic mechanism of aldehyde-deformylating oxygenases” (Protein & Cell, 2014).

Tests used:
[1] = molecular target: T1, SeADO (cADO from Synechococcus elongates PCC7942) (Synechococcus elongatus, UniProt Q54764); assay: X-ray crystal structure (WT1, […] A; also WT0, […] A, iron-free); GC-QqQ-MS/MS of extracted ligand; assay type: binding; settings: co-purified ligand in substrate channel; head group bound to Fe2 of di-iron center in WT1; modelled as long-chain fatty alcohol, C18 identified by MS
T1 construct: gene Synpcc7942_1593
T1 sequence (Q54764 1-231): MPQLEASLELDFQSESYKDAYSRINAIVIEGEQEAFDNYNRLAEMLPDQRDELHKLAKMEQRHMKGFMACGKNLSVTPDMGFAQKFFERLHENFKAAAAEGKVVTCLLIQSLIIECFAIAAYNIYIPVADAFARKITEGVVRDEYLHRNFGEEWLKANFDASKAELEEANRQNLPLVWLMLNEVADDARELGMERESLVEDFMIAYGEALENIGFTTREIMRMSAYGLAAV

[2] = molecular target: T1, SeADO (cADO from Synechococcus elongates PCC7942); assay: GC of n-hexane in headspace; assay type: biochemical; settings: 2 mM n-heptanal, 4% DMSO, ferredoxin, ferredoxin reductase, 800 uM NADPH, 60 uM ferrous ammonium sulphate, O2, HEPES pH 7.2, 37 C

SMILES | X-ray crystal structure (WT1, 2.3 A; also WT0, 2.26 A, iron-free); GC-QqQ-MS/MS [1] | GC of n-hexane in headspace [2]
CCCCCCCCCCCCCCCCCCO [Lred, C18 fatty alcohol] | the dominant of the remaining components was identified as a C18 fatty alcohol | 
CCCCCCC=O [n-heptanal] |  | N-heptanal was selected as the substrate to measure the activity of cADO proteins.
